# Measured values reported in patent US5338548A, “Method for increasing the storage stability of physostigmine” (priority 1993, dated 1994).
# Where “and” joins values, the source holds several entries; their conditions need not be identical. Equal entries are not always repeated. Entries after “also recorded” stand apart in the source; their conditions may differ.
# What was measured:
# [1] = Stability of Physostigmine Free Base in Aqueous Solution (and in ethanol, isopropyl myristate), HPLC; format: physicochemical
# Protocol: Relative stability of physostigmine free base in neutral or alkaline solution was determined as follows. Methanolic solution of physostigmine free base was acidified with a few drops of hydrochloric acid to lower the pH to about 3-6. […] Analysis was performed using HPLC Nova Pak 4-C18 column and a mobile phase consisting of:
# 0.63 g 85% Phosphorous Acid
# 0.96 g Sodium pentasulphonate
# In the same manner, stability of physostigmine free base in neutral or slightly acidified water was determined and is shown in FIG. 2. […] In ethanol solution, 5% of the physostigmine free base was lost after 7 days and 10% after 27 days. At this rate of degradation, a patch would have lost 72% of its active ingredient in one year and 92% in two years.
# skin of rabbits = assay: In Vivo Test of Physostigmine Free Base Patches (rabbit skin flux, 23 hours)
# Protocol: Pellethane™ 2363-80AE (24.4 g) was added to a solution of 101.3 g of THF containing 2.903 g of physostigmine free base and 2.951 g of isopropyl myristate and stirred until a clear solution was formed. After evaporation of the THF solvent, the liquid cast film of 2000 μm produced a dry matrix film 180-230 μm thick. A solution of Avery adhesive 460, containing 10 wt % isopropyl myristate was cast on the drug/polymer matrix film to produce an adhesive layer approximately 801 μm thick. The film was finally overlaid with a release liner film 1022 available from 3M Company and patches with an area of 7.92 cm^2 were cut from the laminated structure. These patches were weighed, heat sealed into polyethylene-foil pouches and stored until use.
# The patches were then placed on the skin of rabbits from which the hair had been carefully clipped, after 23 hours, the patches were removed and the in vivo skin fluxes determined and summarized in Table II.
# [2] = Stability of Physostigmine Free Base in Polymer Matrix (patch storage, HPLC recovery); format: physicochemical; conditions: for Weight of Physostigmine free base Recovered: polyurethane patch, n = 3
# Protocol: Increased stability of physostigmine free base in polymer matrices over solutions is shown in the following experiments. Patches containing physostigmine free base in a polymer matrix were prepared by dissolving 18 g of a polyether based polyurethane produced by Dow under the name Pellethane™ grade 2363-80AE, 2.0 g physostigmine free base and 2.0 g isopropyl myristate in 80 g THF. The solution was allowed to stand until clear. A second identical lot of polymer/drug solution was prepared containing 0.02 g of acetyl cystine. Clear solutions were cast onto the reverse side of a polyester-based release liner available from 3M Company of Minneapolis under the trade name Scotch™ 1002. After evaporation of the THF solvent, the liquid cast film of 2000 μm produced a dry matrix film 200-230 μm thick. Patches with an area of 7.9 cm^2 were cut from these laminated structures, packaged in polyethylene foil pouches and stored at room temperature and at 45° C.
# Three patches from each lot were tested for physostigmine free base content immediately after manufacture and after 7 and 25 days of storage at room temperature and at 45° C. Once the backing was removed from the patch, the drug-containing film was weighed and then dissolved in 25 g of THF, followed by dilution with 25 g on methanol. Precipitated Pellethane™ was filtered from the solution before injection into the HPLC. Average amounts of physostigmine free base recovered from the patches, with and without acetyl cysteine, are given in Table I. Theoretical drug loadings were 17.2 and 16.2 mg for the stabilized and unstabilized patches, respectively. Scatter in the weight data can be attributed to variation in film weights and analytical errors amounting to as much as ±10%.
# [3] = tested on: skeletal muscle contraction; conditions: background, myasthenia gravis; cited from earlier work
# [4] = tablets, oral dosage; cited from earlier work
# [5] = systemic use; cited from earlier work
# long-term memory = conditions: Davis et al., Science 201, 272 (1978); cited from earlier work
# tardive dyskinesia = conditions: American Journal of Psychiatry, 134(7), 769-774; cited from earlier work
# [6] = individual patch (patch 1-12), 23 hours on rabbit skin
smiles,measurement,setting,value
CNC(=O)Oc1ccc2c(c1)[C@]1(C)CCN(C)[C@@H]1N2C [Physostigmine free base],degraded at 168 h,"[1]; ethanol solution, after 7 days, read-out: physostigmine free base lost in ethanol solution",5%
same,degraded at 648 h,"[1]; ethanol solution, after 27 days, read-out: physostigmine free base lost in ethanol solution",10%
same,"appearance of degradation (pink solution, rubreserine)","[1]; methanolic solution acidified with HCl to pH about 3-6, after one or two hours",became pink due to accumulation of the degradation product rubreserine; also recorded: appearance of degradation products of the pink solution
same,loss of initial drug in neutral solution,"[1]; neutral water, within 30 days, same storage conditions, FIG. 2",degrades rapidly with more than half of the initial drug gone
same,stability in slightly acidified water,"[1]; room temperature, pH 3, FIG. 2","more stable, and slightly pink"
same,rate of degradation in ethanol and isopropyl myristate,"[1]; solvents ethanol and isopropyl myristate, compared with unbuffered and acidified water",slower than with unbuffered water but faster than with acidified water
same,Drug Delivered ΔMass,skin of rabbits; Average of patches 1-12,14.0 mg
same,Drug Delivered ΔMass (%),skin of rabbits; Average of patches 1-12,69%
same,Drug Remaining in Patch,skin of rabbits; Average of patches 1-12,6.3 mg
same,ΔMass/time,skin of rabbits; Average of patches 1-12,0.61 mg/h
same,Average Total Flux,"skin of rabbits; Average of patches 1-12, patch area 7.9 cm^2",77 μg/cm^2 · hr
same,Drug Delivered ΔMass,skin of rabbits; [6],15.0 mg and 14.0 mg and 15.7 mg and 12.0 mg and 16.0 mg and 12.8 mg and 14.3 mg and 13.7 mg and 15.2 mg and 12.7 mg and 11.8 mg
same,Drug Delivered ΔMass (%),skin of rabbits; [6],67% and 69% and 70% and 71% and 68%
same,ΔMass/time,skin of rabbits; [6],0.65 mg/h and 0.61 mg/h and 0.68 mg/h and 0.52 mg/h and 0.70 mg/h and 0.56 mg/h and 0.62 mg/h and 0.60 mg/h and 0.66 mg/h and 0.55 mg/h and 0.51 mg/h
same,Drug Remaining in Patch,"skin of rabbits; individual patch (patch 1-12), 23 hours on rabbit skin, measured by HPLC",7.4 mg and 6.8 mg and 7.1 mg and 5.2 mg and 6.7 mg and 6.2 mg and 6.5 mg and 5.7 mg and 4.9 mg
same,Average Total Flux,"skin of rabbits; individual patch (patch 1-12), patch area 7.9 cm^2, 23 hours on rabbit skin",82 μg/cm^2 · hr and 77 μg/cm^2 · hr and 86 μg/cm^2 · hr and 66 μg/cm^2 · hr and 88 μg/cm^2 · hr and 71 μg/cm^2 · hr and 78 μg/cm^2 · hr and 75 μg/cm^2 · hr and 83 μg/cm^2 · hr and 70 μg/cm^2 · hr and 64 μg/cm^2 · hr
same,drug delivered,skin of rabbits; over the 23 hour period,approximately 70%
same,Average Physostigmine free base flux,skin of rabbits; text after Table II,160 μg/cm^2 ·h
same,discoloration of patches,[2]; 25 days at 45° C.,slightly discolored
same,Weight of Physostigmine free base Recovered,"[2]; No Preservative, 45° C., 0 days",15.0 mg
same,Weight of Physostigmine free base Recovered,"[2]; No Preservative, 45° C., 7 days",16.8 mg
same,Weight of Physostigmine free base Recovered,"[2]; No Preservative, 45° C., 25 days",18.5 mg
same,Weight of Physostigmine free base Recovered,"[2]; No Preservative, Room Temperature, 0 days",15.0 mg
same,Weight of Physostigmine free base Recovered,"[2]; No Preservative, Room Temperature, 7 days",16.5 mg
same,Weight of Physostigmine free base Recovered,"[2]; No Preservative, Room Temperature, 25 days",16.8 mg
same,Weight of Physostigmine free base Recovered,"[2]; With Preservative, 45° C., 0 days",15.1 mg
same,Weight of Physostigmine free base Recovered,"[2]; With Preservative, 45° C., 7 days",16.8 mg
same,Weight of Physostigmine free base Recovered,"[2]; With Preservative, 45° C., 25 days",16.8 mg
same,Weight of Physostigmine free base Recovered,"[2]; With Preservative, Room Temperature, 0 days",15.1 mg
same,Weight of Physostigmine free base Recovered,"[2]; With Preservative, Room Temperature, 7 days",17.3 mg
same,Weight of Physostigmine free base Recovered,"[2]; With Preservative, Room Temperature, 25 days",16.8 mg
same,additional peaks in HPLC analysis,[2]; patches stored 25 days at 45° C.,no additional peaks were observed
same,physostigmine free base loss during storage,"[2]; polyurethane patches, room temperature or 45° C., up to 25 days",no measurable physostigmine free base loss
CNC(=O)Oc1ccc2c(c1)[C@]1(C)CCN(C)[C@@H]1N2C [Physostigmine],strength of muscular contraction,[3],increased strength of muscular contraction
same,drug blood levels for multiple oral doses,[4],typical variations in blood concentration ranging from a maxima above the required level (and possibly in the toxic range) to a minima which may be below the effective dose
same,therapeutic window,[5],narrow therapeutic window
same,retrieval of information from long-term memory,long-term memory,improved
same,storage of information into long-term memory,long-term memory,significantly enhanced storage of information into long-term memory
same,therapeutic effects on tardive dyskinesia,tardive dyskinesia,positive therapeutic effects on tardive dyskinesia
